Results published in US20230356105A1, “TETRAAZADODECANE BASED CHELATING AGENTS FOR SEPARATION OF RARE EARTH ELEMENTS AND METHOD THEREFOR” (Ustav Organicke Chemie a Biochemie AV CR V.V.I., priority 2020, published 2023).
Several values for one entry are separate records, joined by “and”; a condition that tells them apart may be missing. Equal entries are not always repeated.

Test: Separation of Ho/Er mixture by repeated precipitation using L1 (Example 11)
Assay type: physicochemical
Conditions: for Precipitate concentration [mM] Ho: dissolved to 200 μL
Procedure: Stock solutions were pipetted into round-bottom 2 mL Eppendorf tubes as follows: • 1. 10 μL 100 mM aqueous solution of HoCl3 • 2. 10 μL 100 mM aqueous solution of ErCl3 • 3. 20 μL 100 mM aqueous solution of compound L1. • 4. 60 μL 2 M MOPS buffer pH=7. • 5. 140 μL water.
Nine identical reaction mixtures were prepared and split into three groups: A, B, C. Each tube was equipped with one PTFE-coated magnetic stir bar and sealed, and the mixture was stirred on a magnetic stirrer for 24 hours at room temperature. The tubes were then centrifuged and the supernatants were carefully pipetted out and transferred to a new set of tubes. Precipitates from group A were dissolved by addition of 200 μL 0.1 M HCl. The concentrations of Ho and Er in the supernatants and in the re-dissolved precipitates from group A were determined by ICP-OES. Precipitates from groups B and C were further processed as follows: the precipitates were dissolved by addition of 100 μL 0.1 M HCl, and the pH of the solutions were then raised from 1 to 7 by addition of an equimolar amount of 0.2 M NaOH. The total volume was adjusted to 200 μL by addition of water. The prepared mixtures were subjected to a second round of precipitation and were stirred on a magnetic stirrer for 24 hours at room temperature. The tubes were again centrifuged and the supernatants were carefully pipetted out and transferred to a new set of tubes. Samples from group B were treated identically to the samples from group A previously, and the Ho and Er content in the supernatants and precipitates were determined by ICP-OES. Precipitates from group C were subjected to a third cycle of precipitation followed by Ho and Er content determination analogously to the procedures described above. The resulting absolute concentrations of both metals in the supernatants and precipitates, as well as calculated values of the separation factor Er/Ho according to the formula (concentration of Er in supernatant/concentration of Er in precipitate)/(concentration of Ho in supernatant/concentration of Ho in precipitate), are summarized in Table 5.

[1] = group A, 1st precipitation, mean

For `O=C(O)CN1CCN(CC(=O)O)CCN(Cc2ccccc2)CCN(CC(=O)O)CC1` [L1, 2,2′,2″-(10-benzyl-1,4,7,10-tetraazacyclododecane-1,4,7-triyl)triacetic Acid], the “average of the separation factor values Er/Ho” value (all Er/Ho mixtures) was 2.73, the “Separation factor Er/Ho” value (group A, 1st precipitation) was 2.30 and 2.59 and 2.55 and the “Supernatant concentration [mM] Ho” value (group A, 1st precipitation) was 0.44 mM and 0.40 mM and 0.46 mM. The “Precipitate concentration [mM] Ho” value (group A, 1st precipitation) was 4.72 mM and 4.31 mM and 4.29 mM, the “Precipitate concentration [mM] Ho” value [1] was 4.44 mM and the “Supernatant concentration [mM] Ho” value [1] was 0.43 mM. For the same compound, the “Separation factor Er/Ho” value (group B, 2nd precipitation) was 3.10 and 2.68 and 3.02, the “Supernatant concentration [mM] Ho” value (group B, 2nd precipitation) was 0.58 mM and 0.51 mM and 0.44 mM and the “Precipitate concentration [mM] Ho” value (group B, 2nd precipitation) was 4.07 mM and 4.24 mM and 4.20 mM. The “Precipitate concentration [mM] Ho” value (group B, 2nd precipitation, mean) was 4.17 mM, the “Separation factor Er/Ho” value (group C, 3rd precipitation) was 2.97 and 2.30 and 3.06 and the “Precipitate concentration [mM] Ho” value (group C, 3rd precipitation) was 3.23 mM and 2.65 mM. The “Precipitate concentration [mM] Ho” value (group C, 3rd precipitation, mean) was 3.04 mM.
